What was measured:
JAK2 = biological target: T1, JAK2 (Homo sapiens, UniProt O60674); experiment: Serum-induced JAK2 tyrosine phosphorylation (immunoblot); type: cell-based; details: preliminary data, unpublished
T1 construct: endogenous in cells; host or cells: BR293
Method: For immunoprecipitation and immunoblotting experiments, cells were grown to confluence in 10 cm dishes and maintained in full medium or starved in serum-free medium overnight before the application of appropriate stimuli. Lysates were prepared in TBSN buffer (50 mM Tris-HCl pH7.5, 150 mM NaCl, 1 mM EDTA, 1% NP-40) supplemented with protease inhibitors (1 mM Na3 VO4, 10 mM Na4P2O7, 10 mM NaF, 5 mM EGTA, 10 mM Benzamidine, 0.2 mM PMSF and 1 μg/ml each of leupeptin, aprotinin, pepstatin). Lysates were cleared by centrifugation at 16,000×g for 10 minutes and used directly for immunoprecipitations or stored at −20° C. for further use.
Equal amounts of lysates were incubated with the appropriate antibody for 2 hours at 4° C.
Immune complexes were then allowed to bind to protein A-Sepharose beads for 1 hour at 4° C. and collected by centrifugation. Immunoprecipitates were washed three times in 100 mM Tris-HC1 pH 7.5, […], 1 mM EDTA, 0.1 mM PMSF, 0.5% NP-40. Thereafter, samples were taken up in sodium dodecyl sulphate (SDS) loading buffer and boiled for 5 min.
Samples were separated by electrophoresis through 6% polyacrylamide-SDS gels. Proteins were then transferred to polyvinylidene difluoride (PVDF) membranes with a semi-dry electroblotting apparatus. […]

Akt/PKB = Akt/PKB S473 phosphorylation in serum-stimulated cells (P13K survival pathway); type: cell-based, human; details: for Akt/PKB phosphorylation in serum-stimulated cells: BR293, MCF-7 and MDA-MB-468 cells, Wortmannin 200 nM, AHLs 100 μM
Method: Cell lysates were then prepared and analysed by Western blotting for Akt/PKB phosphorylation with an antibody specific for Akt/PKB phosphorylated on S473 (p-Akt, upper panel) and subsequently for total Akt/PKB content with an antibody for Akt/PKB (lower panel).
In the bottom section of FIG. 21, BR293 cells were serum-starved (lane 1) or starved and stimulated with 10% FCS for 2 hours alone (lane 2) or in the presence of increasing concentrations of OdDHL (lanes 3-6) or 100 μM OHHL (lane 7) or 200 nM Wortmannin (lane 8). Cell lysates were prepared and analysed by Western blotting for Akt/PKB phosphorylation with an antibody specific for Akt/PKB phosphorylated on S473 (upper panel) and subsequently for total Alt/PKB content with an antibody for Akt/PKB (lower panel).

STAT1 and 3 = experiment: STAT complex formation in serum-starved cells treated with AHL alone (EMSA); type: cell-based, human; details: serum-starved BR293 cells; up to 2 h
Source text: Cells were lysed and the DNA-binding activity of STAT1 and 3 was examined by EMSA.

ErbB1 = biological target: T2, ErbB1 (Homo sapiens, UniProt P00533); experiment: Tyrosine phosphorylation of ErbB1 (EGF-R): immunoprecipitation and anti-phosphotyrosine immunoblot; type: cell-based; details: MDA-MB-468 cells
T2 construct: Lysates were prepared, from which ErbB1 proteins were collected as immune complexes; endogenous in cells; host or cells: MDA-MB-468
Method: Immune complexes were then allowed to bind to protein A-Sepharose beads for 1 hour at 4° C. and collected by centrifugation. Immunoprecipitates were washed three times in 100 mM Tris-HC1 pH 7.5, 100 nM NaCl, 1 mM EDTA, 0.1 mM PMSF, 0.5% NP-40. Thereafter, samples were taken up in sodium dodecyl sulphate (SDS) loading buffer and boiled for 5 min.

STAT3 = experiment: EGF-induced STAT3 phosphorylation (Western blotting, Y705); type: cell-based, human; details: MDA-MB-468 cells; co-treatment 100 μM
Method: EGF-R was immunoprecipitated from cell lysates and analysed by Western blotting tyrosine phosphorylation with an anti phosphotyrosine antibody (upper panel, top) and EGF-R content with an anti-EGF-R antibody (lower panel, top). Cell lysates were analysed in parallel for STAT3 phosphorylation with an antibody specific for STAT3 phosphorylated on Y705 (upper panel, bottom) and for STAT3 content with an antibody for STAT3 (lower panel, bottom). […] The inclusion of an anti-STAT3 antibody in duplicate binding reactions (even lanes) identifies STAT3-containing heterodimers (3:1), as indicated to the right of the panel. (c) COS-1 cells were transfected with an expression vector for STAT3, a STAT3-responsive luciferase reporter (SIE2-luc) and a control gene for β-galactosidase. […] After 6 hours cells were harvsted and reporter gene expression analysed. Results are normalised against β-galactosidase values and expressed as averages +/−SD (n=3).

MDA-MB-468 cells = experiment: DAPI staining, confocal microscopy (apoptosis); type: cell-based, human; details: growing cells treated; 100 μM (FIG. 17)
Method: OdDHL induces apoptosis of BC cells (a) MCF-7 cells were cultured in full medium alone or in the presence of 1001M OdDHL or 100 μM OHHL. […] Left-hand panels show DAPI, right-hand panels show the corresponding phase contrast and middle panels the image overlays. (b) MDA-MB-468 cells were cultured in full medium alone or in the presence of 100 μM OdDHL or 100 μM OHHL. […] (c) BR293, MCF-7 and MDA-MD-468 cells were cultured in full medium alone (lanes 1, 3, 5) or in the presence of 100 μM OdDHL (lanes 2, 4, 6) or 400 μM etoposide (lane 7). After 18 hours cells were lysed and analysed for PARP cleavage by Western blotting with an anti-PARP antibody. Full length PARP is labelled and the lower arrow indicates the major caspase cleavage fragment.

p46/p54 JNK/SAPK = experiment: JNK/SAPK phosphorylation in anisomycin-treated cells (Western blotting); type: cell-based, human; details: BR293 cells treated with anisomycin
Method: ERKs are unaffected by OdDHL (a) BR293 cells were serum-starved (lane 1) or starved and stimulated with TPA for 30 min alone (lane 2) or in the presence of increasing concentrations of OdDHL (lanes 3-6) or 100 μM OHHL (lane 7). Cell lysates were prepared and analysed by Western blotting for ERK phosphorylation with an antibody specific for phospho-ERK½ (upper panel) and for ERK content with an antibody against ERKs (lower panel). (b) BR293 cells were serum-starved (lane 1) or starved and stimulated with Anisomycin for 30 min alone (lane 2) or in the presence of increasing concentrations of OdDHL (lanes 3-6) or 100 μM OHHL (lane 7). Cell lysates were prepared and analysed by Western blotting for JNK/SAPK phosphorylation with an antibody specific for phospho-JNKs (upper panel) and for SAPK/JNK content with an antibody against JNKs (lower panel). (c) BR293 cells were treated as described in (b) and lysates were analysed by Western blotting for p38^MAPK phosphorylation with an antibody specific for phospho-p38 (upper panel) and for p38 content with an antibody against p38 (lower panel).

T2 sequence (P00533 25-1210): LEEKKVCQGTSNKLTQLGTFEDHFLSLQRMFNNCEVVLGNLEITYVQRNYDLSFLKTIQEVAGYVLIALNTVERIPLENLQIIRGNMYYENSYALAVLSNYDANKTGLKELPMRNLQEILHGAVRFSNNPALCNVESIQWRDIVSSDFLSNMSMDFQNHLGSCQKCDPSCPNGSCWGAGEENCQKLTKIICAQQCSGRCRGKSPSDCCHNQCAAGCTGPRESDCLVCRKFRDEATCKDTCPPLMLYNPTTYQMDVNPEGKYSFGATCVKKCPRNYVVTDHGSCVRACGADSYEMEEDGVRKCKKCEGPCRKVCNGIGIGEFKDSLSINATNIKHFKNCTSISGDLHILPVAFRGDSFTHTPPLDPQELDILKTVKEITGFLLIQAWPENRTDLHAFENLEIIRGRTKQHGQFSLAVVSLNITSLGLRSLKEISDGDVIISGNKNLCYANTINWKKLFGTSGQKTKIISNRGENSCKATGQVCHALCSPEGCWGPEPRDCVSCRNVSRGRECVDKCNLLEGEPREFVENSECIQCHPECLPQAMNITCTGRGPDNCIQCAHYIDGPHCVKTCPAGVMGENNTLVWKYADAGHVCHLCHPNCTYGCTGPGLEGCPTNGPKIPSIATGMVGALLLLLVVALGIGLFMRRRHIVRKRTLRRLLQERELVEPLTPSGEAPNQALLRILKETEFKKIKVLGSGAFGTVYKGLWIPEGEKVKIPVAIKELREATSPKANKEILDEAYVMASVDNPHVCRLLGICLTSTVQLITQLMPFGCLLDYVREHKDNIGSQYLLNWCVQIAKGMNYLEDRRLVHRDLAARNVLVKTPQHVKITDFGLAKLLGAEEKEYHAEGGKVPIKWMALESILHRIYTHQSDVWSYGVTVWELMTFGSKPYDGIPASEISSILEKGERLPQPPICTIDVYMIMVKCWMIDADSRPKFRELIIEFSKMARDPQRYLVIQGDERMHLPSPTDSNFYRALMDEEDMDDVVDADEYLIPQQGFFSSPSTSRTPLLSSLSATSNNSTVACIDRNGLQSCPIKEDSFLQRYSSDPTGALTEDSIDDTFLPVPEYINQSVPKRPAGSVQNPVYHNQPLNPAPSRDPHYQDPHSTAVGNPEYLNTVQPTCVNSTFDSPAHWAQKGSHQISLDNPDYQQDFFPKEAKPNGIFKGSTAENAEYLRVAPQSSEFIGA
T1 sequence (O60674 whole entry): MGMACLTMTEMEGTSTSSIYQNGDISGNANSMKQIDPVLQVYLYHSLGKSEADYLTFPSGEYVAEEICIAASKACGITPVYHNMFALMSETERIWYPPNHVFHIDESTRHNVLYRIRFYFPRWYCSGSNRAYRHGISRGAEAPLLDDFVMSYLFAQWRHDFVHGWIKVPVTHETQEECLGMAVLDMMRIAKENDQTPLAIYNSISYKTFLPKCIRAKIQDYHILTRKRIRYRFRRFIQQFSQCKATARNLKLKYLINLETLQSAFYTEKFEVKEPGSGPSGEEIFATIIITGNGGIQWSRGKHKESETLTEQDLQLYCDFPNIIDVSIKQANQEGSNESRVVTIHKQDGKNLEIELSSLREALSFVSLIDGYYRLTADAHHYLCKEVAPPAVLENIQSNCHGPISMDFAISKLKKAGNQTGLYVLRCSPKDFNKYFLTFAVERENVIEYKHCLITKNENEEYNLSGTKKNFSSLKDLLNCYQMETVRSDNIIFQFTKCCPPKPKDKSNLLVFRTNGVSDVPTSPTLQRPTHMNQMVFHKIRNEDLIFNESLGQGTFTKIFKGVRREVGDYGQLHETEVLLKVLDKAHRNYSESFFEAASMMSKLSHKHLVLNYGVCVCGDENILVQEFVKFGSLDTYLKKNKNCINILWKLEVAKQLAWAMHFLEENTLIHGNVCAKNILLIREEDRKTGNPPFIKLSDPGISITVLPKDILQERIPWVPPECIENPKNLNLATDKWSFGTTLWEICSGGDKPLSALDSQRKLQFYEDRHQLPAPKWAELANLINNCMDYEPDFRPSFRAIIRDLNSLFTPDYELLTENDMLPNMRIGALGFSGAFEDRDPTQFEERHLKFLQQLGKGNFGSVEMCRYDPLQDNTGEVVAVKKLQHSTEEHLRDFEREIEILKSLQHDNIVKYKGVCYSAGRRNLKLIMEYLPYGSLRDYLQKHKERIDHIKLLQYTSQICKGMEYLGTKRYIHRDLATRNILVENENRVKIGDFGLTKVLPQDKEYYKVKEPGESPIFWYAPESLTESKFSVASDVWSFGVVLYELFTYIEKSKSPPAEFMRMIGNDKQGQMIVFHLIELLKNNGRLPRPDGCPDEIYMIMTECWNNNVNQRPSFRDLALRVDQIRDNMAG

Row | Structure (SMILES) | JAK2 phosphorylation in serum-stimulated cells (JAK2) | Akt/PKB phosphorylation in serum-stimulated cells (Akt/PKB) | effective concentration for blocking Akt/PKB phosphorylation (Akt/PKB; titration in BR293 cells) | STAT complex formation by AHL alone (STAT1 and 3) | receptor tyrosine phosphorylation in response to EGF stimulation (ErbB1; 100 μM and even at lower concentrations (101M as printed)) | tyrosine phosphorylation of the EGF-R in unstimulated cells (ErbB1; OdDHL alone at 100 μM) | STAT3 phosphorylation in response to EGF (STAT3) | nuclear integrity by DAPI staining (MDA-MB-468 cells) | p46/p54 JNK/SAPK phosphorylation (p46/p54 JNK/SAPK)
1 | CCCCCCCCCC(=O)CC(=O)N[C@H]1CCOC1=O [OdDHL, N-(3-oxo-dodecanoyl)-L-homoserine lactone] | does not interfere with JAK2 phosphorylation | blocked phosphorylation of Akt/PKB to a similar degree as Wortmannin | above 50 μM | did not induce STAT complex formation | potentiated receptor tyrosine phosphorylation in response to EGF stimulation several fold | caused an increase in detectable tyrosine phosphorylation of the EGF-R | augmented | nuclear disruption | modest but reproducible inhibition
2 | CCCC(=O)CC(=O)N[C@H]1CCOC1=O [OHHL, N-(3-oxohexanoyl)-L-homoserine lactone, reference compound] |  | had no effect |  | did not induce STAT complex formation |  |  |  | unaffected | 

— patent publication US20040259942A1, “Modulation of stat activity” (priority 2001, published 2004)
